Results from patent publication US5236957A, “N-phenylalkyl substituted α-amino carboxamide derivatives and process for their preparation” (Farmitalia Carlo Erba Srl, priority 1989, dated 1993).
Like-named read-outs stand apart in the source and are kept apart here.

Columns and labels:
[1] = test system: bicucculine-induced lethality in mice; experiment: Antagonism of bicucculine-induced lethality in mice; type: in vivo; details: Mus musculus, po; drugs given orally 1 h before bicucculine (0.6 mg/kg, i.v.); protection of 50% of mice from lethality
Procedure: (§1) The activity on the CNS of the compounds of the invention was evaluated on the basis of pharmacological methods, such as, for example, the antagonism of convulsions and lethality induced by intravenous injection of bicucculine in mice (Antiepileptic Drug, D. M. Woodbury et al. eds., 2nd edition, Raven Press, New York, 1982), or the antagonism of convulsions induced in mice by subcutaneous injection of 3-mercaptopropionic acid (W. Loscher, Biochem. Pharmacol., 28; 1397-1407, 1979). Accordingly in following Tables 1 and 2, the doses which protect 50% of the mice (i.e. ED50) from lethality and tonic convulsions induced by bicucculine and 3-mercaptopropanoic acid, respectively, are given for a representative group of compounds according to the present invention.
Antagonism of bicucculine-induced lethality in mice.
Drugs were given orally 1 h before bicucculine (0.6 mg/kg, i.v.)

[2] = test system: 3-mercaptopropionic acid (MPA) induced tonic convulsions in mice; experiment: Antagonism of 3-mercaptopropionic acid (MPA) induced tonic convulsions in mice; type: in vivo; details: Mus musculus, po
Procedure: as §1
Antagonism of 3-mercaptopropionic acid (MPA) induced
tonic convulsions in mice; drugs were given orally
1 h before MPA (60 mg/kg s.c.)

MAO type B = molecular target: T1, MAO type B (Rattus norvegicus, UniProt P19643); experiment: Inhibition of MAO type B, rat liver mitochondria, 2-phenylethylamine as substrate; type: biochemical; details: rat liver mitochondria as source of MAO
T1 construct: using rat liver mitochondria as the source of MAO; from tissue; host or cells: rat liver mitochondria
T1 sequence (P19643 1-520): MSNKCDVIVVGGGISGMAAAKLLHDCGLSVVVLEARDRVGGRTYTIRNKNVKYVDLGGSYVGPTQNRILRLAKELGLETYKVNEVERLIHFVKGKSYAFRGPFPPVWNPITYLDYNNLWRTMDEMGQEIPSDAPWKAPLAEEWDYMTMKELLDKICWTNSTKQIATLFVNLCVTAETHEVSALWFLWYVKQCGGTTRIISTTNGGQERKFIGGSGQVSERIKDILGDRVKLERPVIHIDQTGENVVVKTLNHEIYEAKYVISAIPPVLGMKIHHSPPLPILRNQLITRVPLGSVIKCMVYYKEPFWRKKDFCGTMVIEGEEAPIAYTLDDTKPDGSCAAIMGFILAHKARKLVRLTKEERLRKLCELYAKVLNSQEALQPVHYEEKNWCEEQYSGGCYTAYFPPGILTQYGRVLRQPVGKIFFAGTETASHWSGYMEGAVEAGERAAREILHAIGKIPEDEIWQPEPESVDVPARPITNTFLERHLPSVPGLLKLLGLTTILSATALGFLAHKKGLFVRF

[3] = test system: serotonin (5-HT) and 5-hydroxy-indole-3-acetic acid (5-HIAA); experiment: Levels of 5-HT and 5-HIAA in frontal cortex of mice; type: in vivo; details: 200 mg/kg p.o.
[4] = drugs given orally 1 h before MPA (60 mg/kg s.c.), protection of 50% of mice from tonic convulsions, read-out: ED50

Work on `C[C@H](NCc1ccc(OCc2ccccc2Cl)cc1)C(N)=O` [FCE 26700, (S)-2-[4-(2-chlorobenzyloxy)benzyl]aminopropionamide] yielded an ED50 [1] of 17 mg/kg.

`CNC(=O)[C@H](CO)NCc1ccc(OCc2ccccc2F)cc1` [FCE 26649] showed an ED50 [1] of 12 mg/kg.

`CNC(=O)[C@H](CO)NCc1ccc(OCc2ccccc2Cl)cc1` [FCE 26502, (S)-2-[4-(2-chlorobenzyloxy)benzyl]amino-3-hydroxy-N-methylpropionamide] showed an ED50 [2, 4] of 16 mg/kg and an ED50 [1] of 27 mg/kg.

`CCCC(CCC)C(=O)O` [Valproate, reference compound] gave an ED50 ([2]; 1 h) of 302 mg/kg and an ED50 [1] of 401 mg/kg.

Work on `C[C@H](NCc1ccc(OCc2cccc(F)c2)cc1)C(N)=O` [FCE 26743, (S)-2-[4-(3-fluorobenzyloxy)benzyl]aminopropionamide] yielded an ED50 [1] of 29 mg/kg.

Compound `C[C@@H](C(N)=O)N(C)Cc1ccc(Cc2ccccc2)cc1` [FCE 26762, (S)-2-[N-(4-benzylbenzyl)-N-methyl]aminopropionamide] has an ED50 [1] of 54 mg/kg.

For `C[C@H](NCc1ccc(NCc2ccccc2)cc1)C(N)=O` [FCE 26749, (S)-2-(4-benzylaminobenzyl)aminopropionamide], the ED50 [1] was 9 mg/kg.

`CNC(=O)[C@H](CO)NCc1ccc(OCc2cccc(F)c2)cc1` [FCE 26650, (S)-2-[4-(3-fluorobenzyloxy)benzyl]amino-3-hydroxy-N-methylpropionamide] gave an ED50 [1] of 25 mg/kg.

`C[C@@H](NCc1ccc(OCc2cccc(Cl)c2)cc1)C(N)=O` [FCE 26312, (R)-2-[4-(3-chlorobenzyloxy)benzyl]aminopropionamide] gave an ED50 [2, 4] of 10 mg/kg and an ED50 [1] of 50 mg/kg.

For `C[C@H](NCc1ccc(OCc2ccccc2)cc1)C(N)=O` [FCE 26550, (S)-2-(4-benzyloxybenzyl)aminopropionamide], the ED50 [2, 4] was 13 mg/kg and the ED50 [1] was 15 mg/kg.

Work on `C[C@H](NCc1ccc(Cc2ccccc2)cc1)C(N)=O` [FCE 26723, (S)-2-(4-benzylbenzyl)aminopropionamide] yielded an ED50 [1] of 16 mg/kg.

Compound `CNC(=O)[C@H](CO)NCc1ccc(OCc2cccc(Cl)c2)cc1` [FCE 26359, (S)-2-[4-(3-chlorobenzyloxy)benzyl]amino-3-hydroxy-N-methylpropionamide] has an ED50 [2, 4] of 29 mg/kg.

With `NC(=O)CNCc1ccc(OCc2cccc(Cl)c2)cc1` [FCE 25989, 2-[4-(3-chlorobenzyloxy)benzyl]aminoacetamide] the ED50 [2, 4] was 28 mg/kg, the ED50 [1] was 190 mg/kg and the IC50 (MAO type B) was 200 nM. For the same compound, the “increase of 5-HIAA” value [3] was 37% and the “increase of 5-HT” value [3] was 48%.

Work on `CNC(=O)[C@H](CO)NCc1ccc(OCc2ccccc2)cc1` [FCE 26358, (S)-2-(4-benzyloxybenzyl)amino-3-hydroxy-N-methylpropionamide] yielded an ED50 [2, 4] of 43 mg/kg and an ED50 [1] of 16 mg/kg.
